Results taken from US9630922B2, “3-spiro-7-hydroxamic acid tetralins as HDAC inhibitors” (Forma Therapeutics, Inc., priority 2015, dated 2017).

Target: T1, HDAC6 (Homo sapiens, UniProt Q9UBN7)
T1 construct: Full length human recombinant HDAC6 protein was expressed in baculoviral system; made in house; host or cells: baculoviral system
T1 sequence (Q9UBN7 1-1215): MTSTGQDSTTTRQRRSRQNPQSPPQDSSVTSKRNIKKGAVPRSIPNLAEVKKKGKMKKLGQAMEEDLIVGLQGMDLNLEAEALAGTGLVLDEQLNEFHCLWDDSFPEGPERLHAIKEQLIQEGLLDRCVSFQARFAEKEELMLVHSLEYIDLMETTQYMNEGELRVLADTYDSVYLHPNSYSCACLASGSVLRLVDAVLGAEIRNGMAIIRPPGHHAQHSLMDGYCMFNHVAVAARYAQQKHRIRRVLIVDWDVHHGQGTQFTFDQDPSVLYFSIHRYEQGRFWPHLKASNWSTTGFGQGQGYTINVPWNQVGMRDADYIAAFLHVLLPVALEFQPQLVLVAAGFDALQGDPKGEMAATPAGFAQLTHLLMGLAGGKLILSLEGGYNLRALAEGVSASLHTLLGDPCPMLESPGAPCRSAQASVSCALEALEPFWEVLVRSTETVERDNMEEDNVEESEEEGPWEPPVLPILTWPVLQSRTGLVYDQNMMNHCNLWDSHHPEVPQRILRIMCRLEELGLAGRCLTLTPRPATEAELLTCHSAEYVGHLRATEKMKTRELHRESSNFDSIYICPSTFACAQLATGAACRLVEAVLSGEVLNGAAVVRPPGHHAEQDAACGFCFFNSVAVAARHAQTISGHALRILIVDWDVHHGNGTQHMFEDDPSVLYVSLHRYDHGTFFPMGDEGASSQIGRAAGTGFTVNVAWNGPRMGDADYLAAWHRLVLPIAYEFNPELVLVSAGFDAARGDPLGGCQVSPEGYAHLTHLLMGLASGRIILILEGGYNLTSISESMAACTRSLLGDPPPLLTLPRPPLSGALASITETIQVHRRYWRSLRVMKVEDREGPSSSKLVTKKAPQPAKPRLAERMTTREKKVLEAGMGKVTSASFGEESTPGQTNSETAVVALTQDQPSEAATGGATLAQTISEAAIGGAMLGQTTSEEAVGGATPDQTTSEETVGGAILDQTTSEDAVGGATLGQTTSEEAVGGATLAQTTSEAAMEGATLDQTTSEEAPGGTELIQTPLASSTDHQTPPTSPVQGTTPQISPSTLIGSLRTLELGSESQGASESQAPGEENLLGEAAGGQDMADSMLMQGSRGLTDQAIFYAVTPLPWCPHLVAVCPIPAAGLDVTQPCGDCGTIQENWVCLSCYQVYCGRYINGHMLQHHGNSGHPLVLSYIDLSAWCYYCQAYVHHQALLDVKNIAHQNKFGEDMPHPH
Test: In vitro Histone Deacetylase Assay (enzymatic HDAC6 electrophoretic mobility shift assay)
Assay type: biochemical
Settings: full length human recombinant HDAC6, 1 nM enzyme, 2 μM peptide substrate RHKK(Ac)-NH2, 25° C.; read-out: HDAC6 activity range
In short: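 Deacetylation was read by microfluidic mobility shift as product/(substrate+product) peak ratio and normalised to 0% and 100% inhibition controls. Reactions used 1 nM baculovirus-expressed full-length human HDAC6 and 2 μM labelled RHKK(Ac)-NH2 in pH 7.5 HEPES buffer with 1% DMSO at 25 °C. IC50 was from 4-parameter fits of 12 concentrations.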

With `O=C(NO)c1ccc2c(c1)CCC1(CCN(c3nc4ccccc4[nH]3)C1=O)C2` (stereo not drawn) [Compound I-5, 1′-(1H-benzo[d]imidazol-2-yl)-N-hydroxy-2′-oxo-3,4-dihydro-1H-spiro[naphthalene-2,3′-pyrrolidine]-6-carboxamide] the IC50 was at most 0.1 µM.

Work on `O=C(NO)c1ccc2c(c1)CC[C@@]1(CCN(Cc3cccc(F)c3)C1=O)C2` [Compound I-79, (S)-1′-(3-fluorobenzyl)-N-hydroxy-2′-oxo-3,4-dihydro-1H-spiro[naphthalene-2,3′-pyrrolidine]-6-carboxamide] yielded an IC50 of at most 0.1 µM.

`COc1cc(N2CC[C@]3(CCc4cc(C(=O)NO)ccc4C3)C2=O)ccn1` [Compound I-149, (R)-N-hydroxy-1′-(2-methoxypyridin-4-yl)-2′-oxo-3,4-dihydro-1H-spiro[naphthalene-2,3′-pyrrolidine]-6-carboxamide] was tested, and the IC50 was at most 0.1 µM.

Work on `O=C(NO)c1ccc2c(c1)CCC1(CCN(C3CCCCC3)CC1)O2` [II-8, 1′-cyclohexyl-N-hydroxyspiro[chromane-2,4′-piperidine]-6-carboxamide] yielded an IC50 of over 0.5 µM.

With `COc1ncccc1N1CC[C@@]2(CCc3cc(C(=O)NO)ccc3C2)C1=O` [Compound I-146, (S)-N-hydroxy-1′-(2-methoxypyridin-3-yl)-2′-oxo-3,4-dihydro-1H-spiro[naphthalene-2,3′-pyrrolidine]-6-carboxamide] the IC50 was at most 0.1 µM.

`O=C(NO)c1ccc2c(c1)CC[C@@]1(CCN(c3cncc(F)c3)C1=O)C2` [Compound I-153, (2S)-1′-(5-fluoropyridin-3-yl)-N-hydroxy-2′-oxo-3,4-dihydro-1H-spiro[naphthalene-2,3′-pyrrolidine]-6-carboxamide] was tested, and the IC50 was at most 0.1 µM.

`C=C(C)CN1CC[C@]2(CCc3cc(C(=O)NO)ccc3C2)C1=O` [Compound I-47, (R)-N-hydroxy-1′-(2-methylallyl)-2′-oxo-3,4-dihydro-1H-spiro[naphthalene-2,3′-pyrrolidine]-6-carboxamide] was tested, and the IC50 was at most 0.1 µM.

`O=C(NO)c1ccc2c(c1)CC[C@]1(CCN(c3ccc(F)c(F)c3)C1=O)C2` [Compound I-119, (R)-1′-(3,4-difluorophenyl)-N-hydroxy-2′-oxo-3,4-dihydro-1H-spiro[naphthalene-2,3′-pyrrolidine]-6-carboxamide] showed an IC50 of at most 0.1 µM.

Compound `O=C(NO)c1ccc2c(c1)CC[C@@]1(CCN(Cc3ccncc3)C1=O)C2` [Compound I-15, (S)-N-hydroxy-2′-oxo-1′-(pyridin-4-ylmethyl)-3,4-dihydro-1H-spiro[naphthalene-2,3′-pyrrolidine]-6-carboxamide] has an IC50 of at most 0.1 µM.

`O=C(NO)c1ccc2c(c1)CC[C@]1(CCN(c3ccncc3)C1=O)C2` [Compound I-16, (R)-N-hydroxy-2′-oxo-1′-(pyridin-4-yl)-3,4-dihydro-1H-spiro[naphthalene-2,3′-pyrrolidine]-6-carboxamide] was tested, and the IC50 was 0.1 to 0.5 µM.

For `CC(C)N1CCCC2(CCc3cc(C(=O)NO)ccc3C2)C1=O` (single isomer, unassigned) [Compound I-192], the IC50 was at most 0.1 µM.

In the case of `CC(C)N1CC[C@@]2(CCc3cc(C(=O)NO)ccc3C2)C1=O` [Compound I-25, (S)-N-hydroxy-1′-isopropyl-2′-oxo-3,4-dihydro-1H-spiro[naphthalene-2,3′-pyrrolidine]-6-carboxamide], the IC50 is reported as at most 0.1 µM.

With `O=C(NO)c1ccc2c(c1)CC[C@@]1(CCN(c3ccncc3Cl)C1=O)C2` [Compound I-141, (S)-1′-(3-chloropyridin-4-yl)-N-hydroxy-2′-oxo-3,4-dihydro-1H-spiro[naphthalene-2,3′-pyrrolidine]-6-carboxamide] the IC50 was at most 0.1 µM.

In the case of `O=C(NO)c1ccc2c(c1)CCC1(CCN(C(=O)C3CCCCC3)CC1)O2` [II-3, 1′-(cyclohexanecarbonyl)-N-hydroxyspiro[chromane-2,4′-piperidine]-6-carboxamide], the IC50 is reported as over 0.5 µM.

With `COc1cccc(N2CC[C@@]3(CCc4cc(C(=O)NO)ccc4C3)C2=O)c1` [Compound I-158, (S)-N-hydroxy-1′-(3-methoxyphenyl)-2′-oxo-3,4-dihydro-1H-spiro[naphthalene-2,3′-pyrrolidine]-6-carboxamide] the IC50 was at most 0.1 µM.

`O=C(NO)c1ccc2c(c1)CC[C@@]1(CCN(c3cnc4ccccc4c3)C1=O)C2` [Compound I-102, (S)-N-hydroxy-2′-oxo-1′-(quinolin-3-yl)-3,4-dihydro-1H-spiro[naphthalene-2,3′-pyrrolidine]-6-carboxamide] gave an IC50 of at most 0.1 µM.

For `O=C(NO)c1ccc2c(c1)CC[C@@]1(CCN(Cc3ccccc3F)C1=O)C2` [Compound I-84, (S)-1′-(2-fluorobenzyl)-N-hydroxy-2′-oxo-3,4-dihydro-1H-spiro[naphthalene-2,3′-pyrrolidine]-6-carboxamide], the IC50 was at most 0.1 µM.

`COc1cncc(N2CC[C@]3(CCc4cc(C(=O)NO)ccc4C3)C2=O)c1` [Compound I-143, (R)-N-hydroxy-1′-(5-methoxypyridin-3-yl)-2′-oxo-3,4-dihydro-1H-spiro[naphthalene-2,3′-pyrrolidine]-6-carboxamide] was tested, and the IC50 was at most 0.1 µM.

Compound `COCCn1c(N2CC[C@]3(CCc4cc(C(=O)NO)ccc4C3)C2=O)nc2ccccc21` [Compound I-12, (R)-N-hydroxy-1′-(1-(2-methoxyethyl)-1H-benzo[d]imidazol-2-yl)-2′-oxo-3,4-dihydro-1H-spiro[naphthalene-2,3′-pyrrolidine]-6-carboxamide] has an IC50 of 0.1 to 0.5 µM.

Work on `CC(C)N1CCC2(CCc3cc(C(=O)NO)ccc3O2)C1=O` (stereo not drawn) [Compound I-235, N-hydroxy-1′-isopropyl-2′-oxospiro[chromane-2,3′-pyrrolidine]-6-carboxamide] yielded an IC50 of over 0.5 µM.

Compound `COc1ccc(N2CC[C@]3(CCc4cc(C(=O)NO)ccc4C3)C2=O)cc1F` [Compound I-90, (R)-1′-(3-fluoro-4-methoxyphenyl)-N-hydroxy-2′-oxo-3,4-dihydro-1H-spiro[naphthalene-2,3′-pyrrolidine]-6-carboxamide] has an IC50 of at most 0.1 µM.

`N#Cc1cccc(N2CC[C@@]3(CCc4cc(C(=O)NO)ccc4C3)C2=O)c1` [Compound I-116, (S)-1′-(3-cyanophenyl)-N-hydroxy-2′-oxo-3,4-dihydro-1H-spiro[naphthalene-2,3′-pyrrolidine]-6-carboxamide] showed an IC50 of at most 0.1 µM.

In the case of `O=C(NO)c1ccc2c(c1)CCC1(CC(=O)N(C3CC3)C1)C2` (single isomer, unassigned) [Compound I-214], the IC50 is reported as at most 0.1 µM.

Compound `Cc1ccc(CN2CCC3(CCc4cc(C(=O)NO)ccc4C3)C2=O)cc1` (stereo not drawn) [Compound I-8, N-hydroxy-1′-(4-methylbenzyl)-2′-oxo-3,4-dihydro-1H-spiro[naphthalene-2,3′-pyrrolidine]-6-carboxamide] has an IC50 of 0.1 to 0.5 µM.

`O=C(NO)c1ccc2c(c1)CC[C@@]1(CCN(Cc3c(Cl)cccc3Cl)C1=O)C2` [Compound I-75, (S)-1′-(2,6-dichlorobenzyl)-N-hydroxy-2′-oxo-3,4-dihydro-1H-spiro[naphthalene-2,3′-pyrrolidine]-6-carboxamide] was tested, and the IC50 was 0.1 to 0.5 µM.

With `O=C(NO)c1ccc2c(c1)CC[C@]1(CCCN(c3ccccc3)C1=O)C2` (single isomer, unassigned) [Compound I-182] the IC50 was at most 0.1 µM.

`CC(C)CCN1CC[C@@]2(CCc3cc(C(=O)NO)ccc3C2)C1=O` [Compound I-62, (S)-N-hydroxy-1′-isopentyl-2′-oxo-3,4-dihydro-1H-spiro[naphthalene-2,3′-pyrrolidine]-6-carboxamide] was tested, and the IC50 was 0.1 to 0.5 µM.

Compound `COc1ccc(N2CC[C@@]3(CCc4cc(C(=O)NO)ccc4C3)C2=O)cn1` [Compound I-118, (S)-N-hydroxy-1′-(6-methoxypyridin-3-yl)-2′-oxo-3,4-dihydro-1H-spiro[naphthalene-2,3′-pyrrolidine]-6-carboxamide] has an IC50 of at most 0.1 µM.

`Cc1ccncc1N1CC[C@]2(CCc3cc(C(=O)NO)ccc3C2)C1=O` [Compound I-136, (R)-N-hydroxy-1′-(4-methylpyridin-3-yl)-2′-oxo-3,4-dihydro-1H-spiro[naphthalene-2,3′-pyrrolidine]-6-carboxamide] was tested, and the IC50 was at most 0.1 µM.

`O=C(NO)c1ccc2c(c1)CCC1(CCCN(CC3CCC3)C1=O)C2` (single isomer, unassigned) [Compound I-186] showed an IC50 of at most 0.1 µM.
